Data as given in patent US20090124587A1, “METHODS FOR TREATING CANCER USING 17alpha-HYDROXYLASE/C17,20-LYASE INHIBITORS” (priority 2007, published 2009).
Read-outs that look alike come from different tables or passages of the source.

Assay: Pharmacokinetic study of abiraterone in hormone refractory prostate cancer patients, oral doses 250-2000 mg/day, fasted
Assay type: in vivo, human
Conditions: mean, fasted, plasma; for AUC(0-t) / Cmax / Tmax / AUC(0-inf): male, human; for AUC(0-inf): read-out: AUCINF_obs
Method: A group of 15 subjects was divided into five groups. Members of each group were orally administered doses of 250 mg/day, 500 mg/day, 750 mg/day, 1000 mg/day or 2000 mg/day once a day. Before administration the subjects had fasted. PK blood samples were measured at 1, 2, 4, 6, 8, 24, and 72 hours post dose.
To measure the amount of abiraterone and abiraterone acetate in the samples, these compounds were extracted from 100 uL human plasma using solid phase extraction (SPE) with cation mixed-mode polymer cartridges. Extracts were evaporated to dryness before reconstitution and analysis. Chromatography was carried out using a Luna™ C5 column (5 μm, 50 mm×2.1 mm id) with a gradient mobile phase consisting of 10 mM ammonium acetate and 2% propan-2-ol in acetonitrile. The flow rate was 0.2 mL/min and the run time 10.5 minutes. Abiraterone and abiraterone acetate were ionized using the electrospray interface in positive ion mode. Detection of analytes was via tandem mass spectrometry (MS/MS) in the multiple reaction monitoring (MRM) mode.
PK modeling was conducted using a non-compartmental model, extra vascular input for plasma with WinNonLin Software®. Pharmacokinetic parameters estimated in the model include: […]

[1] = 250 mg/day abiraterone acetate oral
[2] = 500 mg/day abiraterone acetate oral
[3] = 750 mg/day abiraterone acetate oral
[4] = 1000 mg/day abiraterone acetate oral
[5] = 2000 mg/day abiraterone acetate oral

AUC(0-t) [1]: 1.25 µM·h
Cmax [1]: 219 nM
Tmax [1]: 2.05 h
AUC(0-inf) [1]: 1.37 µM·h
AUC(0-t) [2]: 1.33 µM·h
Cmax [2]: 284 nM
Tmax [2]: 2.59 h
AUC(0-inf) [2]: 1.45 µM·h
AUC(0-t) [3]: 4.29 µM·h
Cmax [3]: 1030 nM
Tmax [3]: 1.71 h
AUC(0-inf) [3]: 4.54 µM·h
AUC(0-t) [4]: 5.03 µM·h
Cmax [4]: 659 nM
Tmax [4]: 3.09 h
AUC(0-inf) [4]: 5.32 µM·h
AUC(0-t) [5]: 4.75 µM·h
Cmax [5]: 531 nM
Tmax [5]: 2.67 h
AUC(0-inf) [5]: 4.98 µM·h
Cl_F_obs [1]: 567.2 L/h
HL_Lambda_z [1]: 11.6 h
Vz_F_obs [1]: 10772.0 L
Cl_F_obs [2]: 1347.2 L/h
HL_Lambda_z [2]: 9.5 h
Vz_F_obs [2]: 14032.5 L
Cl_F_obs [3]: 494 L/h
HL_Lambda_z [3]: 10.8 h
Vz_F_obs [3]: 8340 L
Cl_F_obs [4]: 861.6 L/h
HL_Lambda_z [4]: 9.9 h
Vz_F_obs [4]: 10125.5 L
Cl_F_obs [5]: 1280.3 L/h
HL_Lambda_z [5]: 12.0 h
Vz_F_obs [5]: 21598.8 L
SMILES: C[C@]12CC[C@H](O)CC1=CC[C@@H]1[C@@H]2CC[C@]2(C)C(c3cccnc3)=CC[C@@H]12 [Abiraterone]
